Measurements published in publication PMC6813295, “A tumour-selective cascade activatable self-detained system for drug delivery and cancer imaging” (Nature Communications, 2019).
Where a SMILES comes first, the peptide text is derived from it. The star is where a group is joined. X1 = CC1(C)C(=CC=C2CCCC(C=CC3=[N+](CCCCCC(=O)O)c4ccccc4C3(C)C)=C2*)N(CCCCCC(=O)O)c2ccccc21

Assay: Self-assembly behaviour in water (CD, TEM)
Format: physicochemical
Procedure: Fig. 2 The structure conformations and self-assembly properties of molecule 1 in aqueous solution. a Illustration of the self-assembly strategy of molecule 1. b CD spectra of molecule 1 and molecule 4 in deionized water at a concentration of 1 μM. c FTIR spectra of molecule 1 in a monomeric state and molecule 4 in a fibrous assembled state. The arrows identify the typical characteristic peaks of the antiparallel β-sheet structure. d TEM image of self-assembled β-sheet nanofibrils of molecule 1 after treatment with caspase-3 (substrate-to-enzyme ratio of 1 μM/U) in HEPES buffer (50 mM, pH 7.4) for 2 h. The manual measurement of the nanofibril diameter is shown in the zoomed image, and the computational simulation result for the length of molecule 4 is inserted. e WAXS and computational simulation results of the β-sheet self-assemblies (molecule 4) identified the β-sheet and laminate spacing of the structures. f The concentration-dependent CD spectra of molecule 4 in the concentration range of 0.5–10 μM. g Time-dependent TEM images of molecule 4 from 10 min to 12 h for monitoring the growth process of the nanofibrous structures. h Temperature-dependent CD intensity changes at 220 nm of molecules 1 and 4 with a heating rate of 1 °C/min and an equilibrium period of 30 s to reveal the self-assembly mechanisms. Scale bar: 100 nm […]
microscopy (UltraVIEW VoX). […]

**Q.** What does the source list for `CC[C@H](C)[C@H](NC(=O)[C@@H]1CCCN1C(=O)[C@@H](NC(=O)[C@H](C)N)C(C)C)C(=O)N[C@@H](C)C(=O)N[C@@H](CCC(N)=O)C(=O)N[C@@H](CCCCN)C(=O)N[C@@H](CC(=O)O)C(=O)N[C@@H](CCC(=O)O)C(=O)N[C@H](C(=O)N[C@@H](CC(=O)O)C(=O)N[C@@H](CCCCN)C(=O)N[C@@H](CC(C)C)C(=O)N[C@H](C(=O)N[C@@H](Cc1ccccc1)C(=O)N[C@@H](Cc1ccccc1)C(=O)N[C@@H](C)C(=O)N[C@@H](CCC(=O)O)C(=O)N[C@@H](CSC1=C(C=CC2=[N+](CCCCCC(=O)O)c3ccccc3C2(C)C)CCCC1=CC=C1N(CCCCCC(=O)O)c2ccccc2C1(C)C)C(=O)NCC(=O)O)C(C)C)C(C)C` [molecule 1] (H-AVPIAQKDEVDKLVFFAEC(X1)G-OH)?
**A.** secondary structure by CD (1 μM in deionized water): random coiled conformation; state in water (dissolved or fibrous structures; TEM, CD) (deionized water, same conditions, TEM 50 μM, from 1% HFIP, 24 h): well-dissolved
